The values that follow come from US7064120B2, “Tricyclic pyridyl carboxamides and derivatives thereof tocolytic oxytocin receptor antagonists” (Wyeth, priority 2001, dated 2006).

Each structure is given as a SMILES string.

As a reminder, the inhibition is the percentage by which the read-out fell short of the control. A higher inhibition goes with strong suppression.

The target of the assay is T1, human vasopressin V2 receptor subtype (Homo sapiens, UniProt P30518).
T1 construct: host or cells: CHO cells, stably transfected (pZeoSV vector)
T1 sequence (P30518 whole entry): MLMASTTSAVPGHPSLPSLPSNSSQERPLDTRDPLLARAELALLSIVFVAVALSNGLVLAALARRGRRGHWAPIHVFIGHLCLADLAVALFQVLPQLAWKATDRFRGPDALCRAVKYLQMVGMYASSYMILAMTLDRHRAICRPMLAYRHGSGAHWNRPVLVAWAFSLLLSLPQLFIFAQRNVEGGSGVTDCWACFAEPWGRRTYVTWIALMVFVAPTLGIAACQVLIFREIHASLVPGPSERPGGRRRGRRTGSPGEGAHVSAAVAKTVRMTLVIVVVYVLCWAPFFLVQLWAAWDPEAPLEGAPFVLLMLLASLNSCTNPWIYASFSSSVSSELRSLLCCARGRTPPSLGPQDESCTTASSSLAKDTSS
The assay can be described thus: Vasopressin binding in CHO cell membranes expressing human vasopressin V2 subtype receptors ([3H]arginine vasopressin radioligand binding). To be noted: 100 nM. Summed up:
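Membranes from CHO cells stably expressing human V2 receptor (25 to 50 μg protein/well) incubated 60 min at room temperature with [3H]arginine vasopressin in Tris-HCl pH 7.4 buffer with MgCl2, BSA and protease inhibitors. Filtration, scintillation counting; percent inhibition at one concentration or IC50 (nM).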
Turning to `COc1cc(C(=O)N2Cc3ccc(C(=O)N(C)CCc4ccccn4)n3Cc3ccccc32)ccc1-n1c(C)ccc1C` [Example 144, 10-[4-(2,5-Dimethyl-1H-pyrrol-1-yl)-3-methoxybenzoyl]-N-methyl-N-[2-(pyridin-2-yl)ethyl]-10,11-dihydro-5H-pyrrolo[2,1-c][1,4]benzodiazepine-3-carboxamide], the inhibition at 0.1 µM came to 2%.

Compound `COc1cc(C(=O)N2Cc3ccc(C(=O)N4CCN(c5ccccn5)CC4)n3Cc3ccccc32)ccc1-n1c(C)ccc1C` [Example 145, {10-[4-(2,5-Dimethyl-1H-pyrrol-1-yl)-3-methoxybenzoyl]-10,11-dihydro-5H-pyrrolo[2,1-c][1,4]benzodiazepin-3-yl}[4-(pyridin-2-yl)-1-piperazinyl]methanone] gave an inhibition at 0.1 µM of 2%.

Compound `COc1cc(C(=O)N2Cc3ccc(C(=O)N4CCN(c5ccncc5)CC4)n3Cc3ccccc32)ccc1-n1c(C)ccc1C` [Example 146, {10-[4-(2,5-Dimethyl-1H-pyrrol-1-yl)-3-methoxybenzoyl]-10,11-dihydro-5H-pyrrolo[2,1-c][1,4]benzodiazepin-3-yl}[4-(pyridin-4-yl)-1-piperazinyl]methanone] came in with an inhibition at 0.1 µM of 15%.

With `COc1cc(C(=O)N2Cc3ccc(C(=O)N(C)CCc4ccncc4)n3Cc3ccccc32)ccc1-n1c(C)ccc1C` [Example 147, 10-[4-(2,5-Dimethyl-1H-pyrrol-1-yl)-3-methoxybenzoyl]-N-methyl-N-[2-(pyridin-4-yl)ethyl]-10,11-dihydro-5H-pyrrolo[2,1-c][1,4]benzodiazepine-3-carboxamide], the inhibition at 0.1 µM is 21%.
